# Measurements: paper PMC6333775, “Structure of tRNA splicing enzyme Tpt1 illuminates the mechanism of RNA 2′-PO4 recognition and ADP-ribosylation” (Nature Communications, 2019)
# Legend:
# CthTpt1 [1] = molecular target: T1, CthTpt1 (Acetivibrio thermocellus, UniProt A3DJX6); assay: X-ray crystal structure, […] Å; assay type: binding; settings: acquired during production in E. coli, pH 6.0
# T1 construct: gene kptA; 182-aa polypeptide, His6-tagged, recombinant from E. coli; Leu3-Glu182 modelled; one protomer in the asymmetric unit
# CthTpt1 [2] = molecular target: T2, CthTpt1 (Acetivibrio thermocellus, UniProt A3DJX6, C46S); assay: X-ray crystal structure, […] Å; assay type: binding; settings: NAD+ site; CoA absent from RNA lobe; acquired during production in E. coli; pH 8.5
# T2 construct: gene kptA; 182-aa polypeptide, His6-tagged, recombinant from E. coli; Leu3-Glu182 modelled; one protomer in the asymmetric unit
# RslTpt1 = molecular target: T3, RslTpt1 (Runella slithyformis, UniProt A0A7U3ZK32, H99A/T101A); assay: RNA […]'-phosphotransferase assay, […]-labelled 6-mer RNA, urea-PAGE; assay type: biochemical; settings: 1 mM NAD+, 0.2 µM 2'-PO4 6-mer RNA, 0.01 µM enzyme, 30 min, pH 7.5, 37 °C
# T3 construct: gene kptA; His6-tagged, recombinant from E. coli, Ni-NTA and gel filtration
# T3 sequence (A0A7U3ZK32 entry or part of it H99A/T101A): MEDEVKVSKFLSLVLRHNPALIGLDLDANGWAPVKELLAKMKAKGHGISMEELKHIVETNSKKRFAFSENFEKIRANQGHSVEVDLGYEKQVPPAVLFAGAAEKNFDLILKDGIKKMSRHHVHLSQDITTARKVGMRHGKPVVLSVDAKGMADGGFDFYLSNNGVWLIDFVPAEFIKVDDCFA
# T1 sequence (A3DJX6 whole entry): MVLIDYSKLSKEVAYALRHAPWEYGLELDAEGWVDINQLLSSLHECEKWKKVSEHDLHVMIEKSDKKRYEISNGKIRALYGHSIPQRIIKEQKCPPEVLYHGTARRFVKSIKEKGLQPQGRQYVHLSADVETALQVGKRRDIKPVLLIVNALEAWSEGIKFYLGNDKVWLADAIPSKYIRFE
# T2 sequence (A3DJX6 whole entry C46S): as the sequence (A3DJX6 whole entry) above, with C46S counted along it
structure (smiles),measurement,setting,value
CC(C)(COP(=O)(O)OP(=O)(O)OC[C@H]1O[C@@H](n2cnc3c(N)ncnc32)[C@H](O)[C@@H]1OP(=O)(O)O)[C@@H](O)C(=O)NCCC(=O)NCCS [coenzyme A],"X-ray crystal structure, 1.4 Å","CthTpt1 [1]; covalent (disulfide to Cys46), pAp moiety in RNA site (N-terminal lobe), ADP-ribose-1″-phosphate also bound",The molecule associated with the N-terminal lobe was convincingly modeled as coenzyme A (CoA)
Nc1ncnc2c1ncn2[C@@H]1O[C@H](COP(=O)(O)OP(=O)(O)OC[C@H]2O[C@H](OP(=O)(O)O)[C@H](O)[C@@H]2O)[C@@H](O)[C@H]1O [ADP-ribose-1″-phosphate],"X-ray crystal structure, 1.55 Å",CthTpt1 [2],ADP-ribose-1″-phosphate was bound to the NAD^+ lobe
same,"X-ray crystal structure, 1.4 Å","CthTpt1 [1]; NAD+ site (C-terminal lobe), CoA also bound",The molecule associated with the C-terminal lobe was unambiguously modeled as ADP-ribose-1″-phosphate
NC(=O)c1ccc[n+]([C@@H]2O[C@H](COP(=O)([O-])OP(=O)(O)OC[C@H]3O[C@@H](n4cnc5c(N)ncnc54)[C@H](O)[C@@H]3O)[C@@H](O)[C@H]2O)c1 [NAD^+],% of input RNA converted to 2′-OH product,RslTpt1,4%
